# Data published in patent publication US12077503B2, “Substituted cyclic amides and their use as herbicides” (FMC CORPORATION, priority 2015, dated 2024).
# Columns and labels:
# Assay type in all cases: in vivo
# [1] = system: giant foxtail (Setaria faberi); test: Test G Pre-Emergence Protocol; conditions: Setaria faberi, pre-emergence, 312 h, evaluated after 13 days; for pest or weed control at 15.625 g/ha: 15.625 g ai/ha; for pest or weed control at 15.625 g/ha / pest or weed control at 250 g/ha: read-out: Foxtail, Giant damage rating (100=total damage to plant; 0=no damage to plant); for pest or weed control at 62.5 g/ha: 62.5 g ai/ha, 100=total damage to plant, 0=no damage to plant, read-out: plant damage rating, Foxtail, Giant; for pest or weed control at 250 g/ha: 250 g ai/ha
# Method in brief: (§1)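 Pots of seeds in standard soil were grown for one day in a glasshouse (24/16 °C day/night, 14 h light, 65% humidity), then sprayed with compound in acetone/water 50:50 with 0.5% Tween 20 at 15.625, 62.5 or 250 g/ha. Damage was scored after 13 days on a 0 (none) to 100 (total) scale.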
# [2] = system: corn (Zea mays); test: Test G Pre-Emergence Protocol; conditions: Zea mays, pre-emergence, 312 h, evaluated after 13 days; for plant injury at 15.625 g/ha: 15.625 g ai/ha; for plant injury at 15.625 g/ha / plant injury at 250 g/ha: read-out: Corn damage rating (100=total damage to plant; 0=no damage to plant); for plant injury at 62.5 g/ha: 62.5 g ai/ha, 100=total damage to plant, 0=no damage to plant, read-out: plant damage rating, Corn; for plant injury at 250 g/ha: 250 g ai/ha
# Method in brief: as §1
# [3] = system: ivy-leaved morning glory (Ipomoea hederacea); test: Test G Pre-Emergence Protocol; conditions: Ipomoea, pre-emergence, 312 h, evaluated after 13 days; for pest or weed control at 15.625 g/ha: 15.625 g ai/ha, read-out: Morning-glory, Ivy-leaved damage rating (100=total damage to plant; 0=no damage to plant); for pest or weed control at 62.5 g/ha: 62.5 g ai/ha, 100=total damage to plant, 0=no damage to plant, read-out: plant damage rating, Morningglory, Ivy-leaved; for pest or weed control at 250 g/ha: 250 g ai/ha, read-out: Morningglory, Ivy-leaved damage rating (100=total damage to plant; 0=no damage to plant)
# Method in brief: as §1
# [4] = system: redroot pigweed (Amaranthus retroflexus); test: Test G Pre-Emergence Protocol; conditions: Amaranthus retroflexus, pre-emergence, 312 h, evaluated after 13 days; for pest or weed control at 15.625 g/ha: 15.625 g ai/ha; for pest or weed control at 15.625 g/ha / pest or weed control at 250 g/ha: read-out: Pigweed, Redroot damage rating (100=total damage to plant; 0=no damage to plant); for pest or weed control at 62.5 g/ha: 62.5 g ai/ha, 100=total damage to plant, 0=no damage to plant, read-out: plant damage rating, Pigweed, Redroot; for pest or weed control at 250 g/ha: 250 g ai/ha
# Method in brief: as §1
# [5] = system: barnyardgrass (Echinochloa crus-galli); test: Test G Pre-Emergence Protocol; conditions: Echinochloa crus-galli, pre-emergence, 312 h, evaluated after 13 days; for pest or weed control at 15.625 g/ha: 15.625 g ai/ha, read-out: Barnyard grass damage rating (100=total damage to plant; 0=no damage to plant); for pest or weed control at 62.5 g/ha: 62.5 g ai/ha, 100=total damage to plant, 0=no damage to plant, read-out: plant damage rating, Barnyardgrass; for pest or weed control at 250 g/ha: 250 g ai/ha, read-out: Barnyardgrass damage rating (100=total damage to plant; 0=no damage to plant)
# Method in brief: as §1
# [6] = system: velvetleaf (Abutilon theophrasti); test: Test G Pre-Emergence Protocol; conditions: Abutilon theophrasti, pre-emergence, 312 h, evaluated after 13 days; for pest or weed control at 15.625 g/ha: 15.625 g ai/ha; for pest or weed control at 15.625 g/ha / pest or weed control at 250 g/ha: read-out: Velvetleaf damage rating (100=total damage to plant; 0=no damage to plant); for pest or weed control at 62.5 g/ha: 62.5 g ai/ha, 100=total damage to plant, 0=no damage to plant, read-out: plant damage rating, Velvetleaf; for pest or weed control at 250 g/ha: 250 g ai/ha
# Method in brief: as §1
# [7] = system: giant foxtail (Setaria faberi); test: Test G Post-Emergence Protocol; conditions: Setaria faberi, post-emergence, 312 h; for pest or weed control at 15.625 g/ha: 15.625 g ai/ha, evaluated after 13 days (100=total damage to plant; 0=no damage to plant), read-out: Foxtail, Giant damage rating; for pest or weed control at 62.5 g/ha: 62.5 g ai/ha, read-out: Foxtail, Giant damage rating (100=total damage to plant; 0=no damage to plant); for pest or weed control at 62.5 g/ha / pest or weed control at 250 g/ha: evaluated after 13 days; for pest or weed control at 250 g/ha: 250 g ai/ha, read-out: damage to plant, Foxtail, Giant (100=total damage to plant; 0=no damage to plant)
# Method in brief: (§2)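 A glasshouse post-emergence test: 8-day-old plants sprayed at 15.625, 62.5 or 250 g/ha, then grown at 24/16 °C day/night with 14 h light and 65% humidity. Damage rated 13 days later, 0–100.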
# [8] = system: corn (Zea mays); test: Test G Post-Emergence Protocol; conditions: Zea mays, post-emergence, 312 h; for plant injury at 15.625 g/ha: 15.625 g ai/ha, evaluated after 13 days (100=total damage to plant; 0=no damage to plant), read-out: Corn damage rating; for plant injury at 62.5 g/ha: 62.5 g ai/ha, read-out: Corn damage rating (100=total damage to plant; 0=no damage to plant); for plant injury at 62.5 g/ha / plant injury at 250 g/ha: evaluated after 13 days; for plant injury at 250 g/ha: 250 g ai/ha, read-out: damage to plant, Corn (100=total damage to plant; 0=no damage to plant)
# Method in brief: as §2
# [9] = system: ivy-leaved morning glory (Ipomoea hederacea); test: Test G Post-Emergence Protocol; conditions: Ipomoea, post-emergence, 312 h; for pest or weed control at 15.625 g/ha: 15.625 g ai/ha, evaluated after 13 days (100=total damage to plant; 0=no damage to plant), read-out: Morningglory, Ivy-leaved damage rating; for pest or weed control at 62.5 g/ha: 62.5 g ai/ha, read-out: Morningglory, Ivy-leaved damage rating (100=total damage to plant; 0=no damage to plant); for pest or weed control at 62.5 g/ha / pest or weed control at 250 g/ha: evaluated after 13 days; for pest or weed control at 250 g/ha: 250 g ai/ha, read-out: damage to plant, Morningglory, Ivy-leaved (100=total damage to plant; 0=no damage to plant)
# Method in brief: as §2
# [10] = system: redroot pigweed (Amaranthus retroflexus); test: Test G Post-Emergence Protocol; conditions: Amaranthus retroflexus, post-emergence, 312 h; for pest or weed control at 15.625 g/ha: 15.625 g ai/ha, evaluated after 13 days (100=total damage to plant; 0=no damage to plant), read-out: Pigweed, Redroot damage rating; for pest or weed control at 62.5 g/ha: 62.5 g ai/ha, read-out: Pigweed, Redroot damage rating (100=total damage to plant; 0=no damage to plant); for pest or weed control at 62.5 g/ha / pest or weed control at 250 g/ha: evaluated after 13 days; for pest or weed control at 250 g/ha: 250 g ai/ha, read-out: damage to plant, Pigweed, Redroot (100=total damage to plant; 0=no damage to plant)
# Method in brief: as §2
# [11] = system: barnyardgrass (Echinochloa crus-galli); test: Test G Post-Emergence Protocol; conditions: Echinochloa crus-galli, post-emergence, 312 h; for pest or weed control at 15.625 g/ha: 15.625 g ai/ha, evaluated after 13 days (100=total damage to plant; 0=no damage to plant), read-out: Barnyardgrass damage rating; for pest or weed control at 62.5 g/ha: 62.5 g ai/ha, read-out: Barnyardgrass damage rating (100=total damage to plant; 0=no damage to plant); for pest or weed control at 62.5 g/ha / pest or weed control at 250 g/ha: evaluated after 13 days; for pest or weed control at 250 g/ha: 250 g ai/ha, read-out: damage to plant, Barnyardgrass (100=total damage to plant; 0=no damage to plant)
# Method in brief: as §2
# [12] = system: velvetleaf (Abutilon theophrasti); test: Test G Post-Emergence Protocol; conditions: Abutilon theophrasti, post-emergence, 312 h; for pest or weed control at 15.625 g/ha: 15.625 g ai/ha, evaluated after 13 days (100=total damage to plant; 0=no damage to plant), read-out: Velvetleaf damage rating; for pest or weed control at 62.5 g/ha: 62.5 g ai/ha, read-out: Velvetleaf damage rating (100=total damage to plant; 0=no damage to plant); for pest or weed control at 62.5 g/ha / pest or weed control at 250 g/ha: evaluated after 13 days; for pest or weed control at 250 g/ha: 250 g ai/ha, read-out: damage to plant, Velvetleaf (100=total damage to plant; 0=no damage to plant)
# Method in brief: as §2
Compound,pest or weed control at 15.625 g/ha [1] [%],pest or weed control at 62.5 g/ha [1] [%],pest or weed control at 250 g/ha [1] [%],plant injury at 15.625 g/ha [2] [%],plant injury at 62.5 g/ha [2] [%],plant injury at 250 g/ha [2] [%],pest or weed control at 15.625 g/ha [3] [%],pest or weed control at 62.5 g/ha [3] [%],pest or weed control at 250 g/ha [3] [%],pest or weed control at 15.625 g/ha [4] [%],pest or weed control at 62.5 g/ha [4] [%],pest or weed control at 250 g/ha [4] [%],pest or weed control at 15.625 g/ha [5] [%],pest or weed control at 62.5 g/ha [5] [%],pest or weed control at 250 g/ha [5] [%],pest or weed control at 15.625 g/ha [6] [%],pest or weed control at 62.5 g/ha [6] [%],pest or weed control at 250 g/ha [6] [%],pest or weed control at 15.625 g/ha [7] [%],pest or weed control at 62.5 g/ha [7] [%],other results
CN1C[C@H](c2ccc(F)c(C#N)c2)[C@@H](C(=O)Nc2ccccc2F)C1=O (racemic) [Compound 1468],80,80,90,0,0,0,0,0,0,0,0,0,10,70,80,0,0,0,30,70,pest or weed control at 250 g/ha [7]: 70%; plant injury at 15.625 g/ha [8]: 10%; plant injury at 62.5 g/ha [8]: 10%; plant injury at 250 g/ha [8]: 10%; pest or weed control at 15.625 g/ha [9]: 10%; pest or weed control at 62.5 g/ha [9]: 0%; pest or weed control at 250 g/ha [9]: 10%; pest or weed control at 15.625 g/ha [10]: 10%; pest or weed control at 62.5 g/ha [10]: 0%; pest or weed control at 250 g/ha [10]: 30%; pest or weed control at 15.625 g/ha [11]: 10%; pest or weed control at 62.5 g/ha [11]: 50%; pest or weed control at 250 g/ha [11]: 40%; pest or weed control at 15.625 g/ha [12]: 0%; pest or weed control at 62.5 g/ha [12]: 0%; pest or weed control at 250 g/ha [12]: 10%
CN1C[C@@H](c2ccc(C(F)(F)F)cc2)[C@H](C(=O)Nc2ccon2)C1=O (racemic) [Compound 1506],0,0,0,0,0,0,0,0,0,0,0,0,0,0,0,0,0,0,0,0,pest or weed control at 250 g/ha [7]: 0%; plant injury at 15.625 g/ha [8]: 0%; plant injury at 62.5 g/ha [8]: 0%; plant injury at 250 g/ha [8]: 0%; pest or weed control at 15.625 g/ha [9]: 0%; pest or weed control at 62.5 g/ha [9]: 0%; pest or weed control at 250 g/ha [9]: 0%; pest or weed control at 15.625 g/ha [10]: 0%; pest or weed control at 62.5 g/ha [10]: 0%; pest or weed control at 250 g/ha [10]: 0%; pest or weed control at 15.625 g/ha [11]: 0%; pest or weed control at 62.5 g/ha [11]: 0%; pest or weed control at 250 g/ha [11]: 0%; pest or weed control at 15.625 g/ha [12]: 0%; pest or weed control at 62.5 g/ha [12]: 0%; pest or weed control at 250 g/ha [12]: 0%
CN1C[C@@H](c2ccc(C(F)(F)F)cc2)[C@H](C(=O)Nc2cc(C(F)(F)F)no2)C1=O (racemic) [Compound 1511],0,0,0,0,0,0,0,0,0,0,0,0,0,0,0,0,0,0,0,0,pest or weed control at 250 g/ha [7]: 0%; plant injury at 15.625 g/ha [8]: 0%; plant injury at 62.5 g/ha [8]: 0%; plant injury at 250 g/ha [8]: 0%; pest or weed control at 15.625 g/ha [9]: 0%; pest or weed control at 62.5 g/ha [9]: 0%; pest or weed control at 250 g/ha [9]: 0%; pest or weed control at 15.625 g/ha [10]: 0%; pest or weed control at 62.5 g/ha [10]: 0%; pest or weed control at 250 g/ha [10]: 0%; pest or weed control at 15.625 g/ha [11]: 0%; pest or weed control at 62.5 g/ha [11]: 0%; pest or weed control at 250 g/ha [11]: 0%; pest or weed control at 15.625 g/ha [12]: 0%; pest or weed control at 62.5 g/ha [12]: 0%; pest or weed control at 250 g/ha [12]: 0%
